Legend:
[1] = molecular target: T1, Serine/threonine-protein kinase ULK3 (Homo sapiens) (UniProt Q6PHR2); experiment: Selectivity interaction (KinomeScan (DiscoverX)) EUB0000229b ULK3; settings: at 10 µM
T1 sequence (whole entry): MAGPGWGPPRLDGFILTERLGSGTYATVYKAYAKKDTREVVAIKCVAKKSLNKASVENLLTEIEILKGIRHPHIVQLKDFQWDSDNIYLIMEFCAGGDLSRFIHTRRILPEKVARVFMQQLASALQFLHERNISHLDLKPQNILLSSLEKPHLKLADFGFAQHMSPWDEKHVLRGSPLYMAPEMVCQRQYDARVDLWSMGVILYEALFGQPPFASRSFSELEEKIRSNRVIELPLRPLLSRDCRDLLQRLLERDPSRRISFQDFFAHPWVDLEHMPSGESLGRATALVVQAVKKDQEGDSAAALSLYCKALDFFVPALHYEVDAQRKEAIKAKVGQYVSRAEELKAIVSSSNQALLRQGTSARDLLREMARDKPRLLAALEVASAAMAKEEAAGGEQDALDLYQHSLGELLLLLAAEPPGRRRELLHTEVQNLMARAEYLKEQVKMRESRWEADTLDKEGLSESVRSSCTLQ

[2] = molecular target: T2, Cytoplasmic tyrosine-protein kinase BMX (Homo sapiens) (UniProt P51813); experiment: Selectivity interaction (KinomeScan (DiscoverX)) EUB0000595a BMX; settings: at 10 µM
T2 sequence (whole entry): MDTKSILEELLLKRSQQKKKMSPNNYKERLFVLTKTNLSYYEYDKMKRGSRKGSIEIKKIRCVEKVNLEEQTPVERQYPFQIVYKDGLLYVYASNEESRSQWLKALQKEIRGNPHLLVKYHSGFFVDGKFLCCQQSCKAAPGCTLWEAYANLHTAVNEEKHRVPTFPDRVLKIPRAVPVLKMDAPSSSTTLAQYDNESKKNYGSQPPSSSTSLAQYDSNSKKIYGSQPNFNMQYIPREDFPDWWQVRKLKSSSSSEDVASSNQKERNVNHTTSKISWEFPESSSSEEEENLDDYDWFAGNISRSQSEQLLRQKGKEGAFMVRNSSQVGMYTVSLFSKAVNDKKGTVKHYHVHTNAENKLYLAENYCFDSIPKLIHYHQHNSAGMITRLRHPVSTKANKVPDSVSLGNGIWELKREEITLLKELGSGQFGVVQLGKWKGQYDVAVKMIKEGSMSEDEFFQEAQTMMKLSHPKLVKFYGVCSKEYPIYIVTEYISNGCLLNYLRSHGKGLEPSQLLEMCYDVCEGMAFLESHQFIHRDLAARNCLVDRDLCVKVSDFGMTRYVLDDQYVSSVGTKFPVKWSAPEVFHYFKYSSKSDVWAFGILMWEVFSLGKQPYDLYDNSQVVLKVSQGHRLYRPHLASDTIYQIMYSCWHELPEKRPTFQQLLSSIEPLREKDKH

[3] = molecular target: Myosin light chain kinase 2, skeletal/cardiac muscle (Homo sapiens) (UniProt Q9H1R3); experiment: Selectivity interaction (KinomeScan (DiscoverX)) EUB0000695a MYLK2; settings: at 100 nM
Chain of Myosin light chain kinase 2, skeletal/cardiac muscle (Homo sapiens) (Q9H1R3 whole entry): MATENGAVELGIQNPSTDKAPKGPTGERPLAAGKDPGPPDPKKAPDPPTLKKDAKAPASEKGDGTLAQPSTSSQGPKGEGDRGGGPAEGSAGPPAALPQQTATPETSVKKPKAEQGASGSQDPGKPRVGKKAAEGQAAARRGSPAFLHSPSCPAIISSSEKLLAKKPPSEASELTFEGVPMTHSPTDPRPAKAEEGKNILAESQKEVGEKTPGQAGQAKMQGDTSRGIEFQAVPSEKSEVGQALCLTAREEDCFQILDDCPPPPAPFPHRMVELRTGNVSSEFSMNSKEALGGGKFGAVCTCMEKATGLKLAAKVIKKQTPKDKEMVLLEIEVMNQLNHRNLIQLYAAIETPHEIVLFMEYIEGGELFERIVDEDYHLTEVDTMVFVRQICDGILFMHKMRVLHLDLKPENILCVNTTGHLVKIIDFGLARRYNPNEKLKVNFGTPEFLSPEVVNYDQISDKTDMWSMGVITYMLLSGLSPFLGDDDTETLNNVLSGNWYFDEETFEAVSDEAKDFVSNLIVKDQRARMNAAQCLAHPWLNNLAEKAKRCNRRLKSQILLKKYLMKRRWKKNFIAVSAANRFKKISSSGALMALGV

[4] = molecular target: T3, Serine/threonine-protein kinase Sgk1 (Homo sapiens) (UniProt O00141); experiment: Selectivity interaction (KinomeScan (DiscoverX)) EUB0000666a SGK1; settings: at 10 µM
T3 sequence (whole entry): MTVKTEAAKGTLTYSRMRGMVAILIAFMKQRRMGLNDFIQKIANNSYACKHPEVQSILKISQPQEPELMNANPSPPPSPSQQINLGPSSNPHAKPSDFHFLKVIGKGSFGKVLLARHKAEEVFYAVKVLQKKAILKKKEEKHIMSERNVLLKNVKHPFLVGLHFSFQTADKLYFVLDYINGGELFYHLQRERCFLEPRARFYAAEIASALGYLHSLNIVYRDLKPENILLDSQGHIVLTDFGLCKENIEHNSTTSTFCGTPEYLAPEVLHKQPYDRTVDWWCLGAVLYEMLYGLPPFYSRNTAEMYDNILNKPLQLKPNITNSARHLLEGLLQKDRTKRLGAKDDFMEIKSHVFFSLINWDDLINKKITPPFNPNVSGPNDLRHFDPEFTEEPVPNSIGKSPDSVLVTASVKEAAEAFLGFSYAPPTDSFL

[5] = molecular target: T4, Activin receptor type-1B (Homo sapiens) (UniProt P36896); experiment: Selectivity interaction (KinomeScan (DiscoverX)) EUB0001049a ACVR1B; settings: at 1 µM
T4 sequence (whole entry): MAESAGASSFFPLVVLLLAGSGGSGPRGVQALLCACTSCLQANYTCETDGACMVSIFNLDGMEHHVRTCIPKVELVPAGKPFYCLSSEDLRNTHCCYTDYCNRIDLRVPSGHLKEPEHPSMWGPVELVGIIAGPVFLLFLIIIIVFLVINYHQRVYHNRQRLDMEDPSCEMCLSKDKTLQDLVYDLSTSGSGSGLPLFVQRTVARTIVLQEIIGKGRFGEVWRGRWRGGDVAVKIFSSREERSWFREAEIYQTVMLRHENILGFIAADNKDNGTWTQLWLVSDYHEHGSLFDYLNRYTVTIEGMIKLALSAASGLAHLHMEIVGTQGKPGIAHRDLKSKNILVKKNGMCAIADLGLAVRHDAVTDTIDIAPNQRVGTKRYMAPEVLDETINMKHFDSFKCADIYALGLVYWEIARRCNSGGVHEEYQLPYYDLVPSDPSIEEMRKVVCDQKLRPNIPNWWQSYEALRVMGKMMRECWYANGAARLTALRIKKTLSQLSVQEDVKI

[6] = molecular target: Tyrosine-protein kinase SYK (Homo sapiens, UniProt P43405); experiment: Selectivity interaction (ActivX KiNativ screen (ex vivo kinase selectivity in human PBMCs)) EUB0001619a SYK; assay type: cell-based; settings: PBMC, at 1 µM
[7] = molecular target: Serine/threonine-protein kinase OSR1 (Homo sapiens) (UniProt O95747); experiment: Selectivity interaction (KinomeScan (DiscoverX)) EUB0001619a OXSR1; settings: at 1 µM
Chain of Serine/threonine-protein kinase OSR1 (Homo sapiens) (O95747 2-527 limits assumed): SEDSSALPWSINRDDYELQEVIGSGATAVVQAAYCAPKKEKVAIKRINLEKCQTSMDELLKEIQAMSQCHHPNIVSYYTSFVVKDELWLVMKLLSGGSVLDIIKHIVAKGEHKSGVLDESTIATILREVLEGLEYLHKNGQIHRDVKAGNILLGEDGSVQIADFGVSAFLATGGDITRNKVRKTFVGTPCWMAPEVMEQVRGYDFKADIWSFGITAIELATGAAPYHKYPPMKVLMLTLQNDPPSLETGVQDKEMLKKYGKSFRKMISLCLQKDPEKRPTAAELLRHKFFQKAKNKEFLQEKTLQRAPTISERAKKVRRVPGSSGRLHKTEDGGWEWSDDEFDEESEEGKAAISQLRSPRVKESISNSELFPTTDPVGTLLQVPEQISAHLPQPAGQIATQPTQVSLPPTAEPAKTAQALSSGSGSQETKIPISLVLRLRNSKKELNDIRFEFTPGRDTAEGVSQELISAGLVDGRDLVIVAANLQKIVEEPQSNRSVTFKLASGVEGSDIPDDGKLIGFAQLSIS

[8] = molecular target: Serine/threonine-protein kinase OSR1 (Homo sapiens) (UniProt O95747); experiment: Selectivity interaction (KinomeScan (DiscoverX)) EUB0000607a OXSR1; settings: at 10 µM
[9] = molecular target: PAS domain-containing serine/threonine-protein kinase (Homo sapiens) (UniProt Q96RG2); experiment: Selectivity interaction (Kinase panel (Invitrogen)) EUB0000639a PASK; settings: at 200 nM
Chain of PAS domain-containing serine/threonine-protein kinase (Homo sapiens) (Q96RG2 whole entry, the tested form may be a part): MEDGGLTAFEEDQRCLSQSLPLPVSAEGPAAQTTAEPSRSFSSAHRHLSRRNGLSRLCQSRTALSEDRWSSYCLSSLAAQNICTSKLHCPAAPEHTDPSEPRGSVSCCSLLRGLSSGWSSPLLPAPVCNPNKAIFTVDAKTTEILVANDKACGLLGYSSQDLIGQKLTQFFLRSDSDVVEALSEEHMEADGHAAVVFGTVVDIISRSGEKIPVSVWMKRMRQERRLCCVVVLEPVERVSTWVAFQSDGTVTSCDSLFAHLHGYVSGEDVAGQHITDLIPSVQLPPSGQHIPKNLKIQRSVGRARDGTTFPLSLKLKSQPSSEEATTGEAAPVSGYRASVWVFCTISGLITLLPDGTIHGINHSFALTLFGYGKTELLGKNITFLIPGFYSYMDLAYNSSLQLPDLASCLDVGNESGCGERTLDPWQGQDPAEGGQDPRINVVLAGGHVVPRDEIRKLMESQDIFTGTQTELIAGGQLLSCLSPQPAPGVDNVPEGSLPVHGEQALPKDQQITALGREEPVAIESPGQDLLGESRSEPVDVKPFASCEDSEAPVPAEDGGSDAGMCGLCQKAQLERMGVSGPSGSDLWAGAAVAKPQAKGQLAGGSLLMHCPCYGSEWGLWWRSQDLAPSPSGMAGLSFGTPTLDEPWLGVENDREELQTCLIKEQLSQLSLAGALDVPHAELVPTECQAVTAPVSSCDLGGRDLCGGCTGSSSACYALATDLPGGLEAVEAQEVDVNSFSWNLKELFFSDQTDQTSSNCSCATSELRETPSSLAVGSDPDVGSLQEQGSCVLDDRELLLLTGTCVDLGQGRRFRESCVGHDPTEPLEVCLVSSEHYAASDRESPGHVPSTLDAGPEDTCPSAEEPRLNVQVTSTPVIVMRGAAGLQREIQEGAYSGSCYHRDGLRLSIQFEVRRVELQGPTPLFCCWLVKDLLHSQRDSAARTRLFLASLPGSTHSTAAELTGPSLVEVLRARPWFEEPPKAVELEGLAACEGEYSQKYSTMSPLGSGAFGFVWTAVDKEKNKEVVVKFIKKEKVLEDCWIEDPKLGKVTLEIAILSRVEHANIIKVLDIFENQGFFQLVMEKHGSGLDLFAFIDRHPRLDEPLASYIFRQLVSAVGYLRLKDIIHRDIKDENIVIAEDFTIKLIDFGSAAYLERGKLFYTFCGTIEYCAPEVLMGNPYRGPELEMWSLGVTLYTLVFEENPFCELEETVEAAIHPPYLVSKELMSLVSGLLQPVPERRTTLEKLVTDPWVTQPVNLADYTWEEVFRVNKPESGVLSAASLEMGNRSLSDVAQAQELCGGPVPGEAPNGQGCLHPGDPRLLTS

[10] = molecular target: Tyrosine-protein kinase BTK (Homo sapiens, UniProt Q06187); settings: at 10 µM
Chain of Tyrosine-protein kinase BTK (Q06187 whole entry): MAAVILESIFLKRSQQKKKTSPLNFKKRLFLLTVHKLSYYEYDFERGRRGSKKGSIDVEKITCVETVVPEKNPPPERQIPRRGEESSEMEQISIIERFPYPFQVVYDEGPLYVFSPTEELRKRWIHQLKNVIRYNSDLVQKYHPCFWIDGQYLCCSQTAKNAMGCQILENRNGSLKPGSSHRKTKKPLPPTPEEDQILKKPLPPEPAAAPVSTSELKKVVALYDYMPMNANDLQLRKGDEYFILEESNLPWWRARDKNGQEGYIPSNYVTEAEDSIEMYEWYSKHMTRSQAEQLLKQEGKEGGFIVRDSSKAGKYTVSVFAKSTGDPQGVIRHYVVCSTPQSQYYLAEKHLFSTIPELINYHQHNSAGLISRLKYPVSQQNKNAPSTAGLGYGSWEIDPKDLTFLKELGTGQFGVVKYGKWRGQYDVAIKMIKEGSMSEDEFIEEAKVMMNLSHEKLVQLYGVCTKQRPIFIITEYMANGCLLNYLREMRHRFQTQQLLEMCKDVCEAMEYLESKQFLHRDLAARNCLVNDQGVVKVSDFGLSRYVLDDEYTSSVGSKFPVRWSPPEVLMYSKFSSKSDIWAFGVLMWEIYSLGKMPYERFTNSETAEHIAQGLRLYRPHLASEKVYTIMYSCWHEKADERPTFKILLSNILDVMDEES

COc1cc(N(C)c2ccnc3ccc(C(F)(F)F)cc23)cc(OC)c1OC
% binding [1]: 75%

COCC(=O)NC/C=C/c1ccc2ncnc(Nc3ccc(Oc4ccc(C)nc4)c(C)c3)c2c1 [CP-724714]
% of control [2]: 73%

Cc1cc(F)c(C(=O)Nc2cccc(-c3nncn3C(C)C)n2)cc1-n1cnc(C2CC2)c1
% of control [3]: 100%

O=C(NOC[C@H](O)CO)c1ccc(F)c(F)c1Nc1ccc(I)cc1F
% of control [4]: 100%

COc1cc(Nc2nc(C)cc(-c3cnn4nc(OC)ccc34)n2)cc(C(F)(F)F)c1
% of control [5]: 100%

N#Cc1cccc(-c2c[nH]c3ncnc(N4CCOCC4)c23)c1
% of inhibition [6]: 7%
% of control [7]: 90%

CNC(=O)Nc1ccc(-c2nc(N3CC4CCC(C3)O4)c3cnn(C4CCC5(CC4)OCCO5)c3n2)cc1
% of control [8]: 100%

CC[C@@H]1[C@H](F)C(=O)N[C@@H]1COc1nccc2cc(C(N)=O)c(OC)cc12 [ZIMLOVISERTIB]
% of inhibition [9]: 7.59%

CCN(CC)CCCCNc1ncc2cc(-c3cc(OC)cc(OC)c3)c(NC(=O)NC(C)(C)C)nc2n1
% of control [10]: 100%
